From ChEMBL document CHEMBL1157265, “Chaetoglobosin U, a cytochalasan alkaloid from endophytic Chaetomium globosum IFB-E019” (J Nat Prod, 2006)
pIC50: −log10 of the molar value.

System: KB
Assay: Cytotoxicity against human KB cells after 48 hrs by MTT assay
Type: functional, cell-based

`C/C1=C\[C@@H](C)C/C=C/[C@H]2[C@@H]3O[C@]3(C)[C@@H](C)[C@H]3[C@H](Cc4c[nH]c5ccccc45)NC(=O)[C@]32C(=O)CCC(=O)C1=O` [CHAETOGLOBOSIN C] gave a pIC50 of 4.47.

Work on `C/C1=C\[C@@H](C)C/C=C/[C@H]2[C@@H]3O[C@]3(C)[C@@H](C)[C@H]3[C@H](Cc4c[nH]c5ccccc45)NC(=O)[C@]32C(=O)CC[C@H](O)C1=O` [CHAETOGLOBOSIN F] yielded a pIC50 of 4.28.

`CC1=C(O)C(=O)[C@@H]2CC(=O)[C@@]34C(=O)N[C@@H](Cc5c[nH]c6ccccc56)[C@@H]3[C@H](C)[C@@]3(C)O[C@H]3[C@@H]4/C=C/C[C@H](C)[C@@H]12` [CHAETOGLOBOSIN U] was tested, and the pIC50 was 4.80.

`C/C1=C\[C@@H](C)C/C=C/[C@H]2[C@@H]3O[C@]3(C)[C@@H](C)[C@H]3[C@H](Cc4c[nH]c5ccccc45)NC(=O)[C@]32c2ccc([nH]2)C(=O)C1=O` [PENOCHALASIN A] was tested, and the pIC50 was 4.32.

`CC1=C(C)[C@H]2[C@H](Cc3c[nH]c4ccccc34)NC(=O)[C@]23C(=O)CC[C@H](O)C(=O)/C(C)=C/[C@@H](C)C/C=C/[C@H]3[C@@H]1O` [CHAETOGLOBOSIN E] showed a pIC50 of 4.40.
